According to US10266552B2, “Condensed heterocyclic compound having cycloalkylpyridyl group or salt thereof, agricultural and horticultural insecticide comprising the compound, and method for using the insecticide” (Nihon Nohyaku Co., Ltd., priority 2015, dated 2019):

Legend:
Assay type in all cases: in vivo
[1] = system: Myzus persicae; assay: Test of control effect on Myzus persicae (foliar application, potted Chinese cabbage); conditions: 144 h, foliar application to potted Chinese cabbage plants, 6 days after the foliar application, read-out: control effect (control rate), activity level
Description: Test of Control Effect on Myzus persicae Chinese cabbage plants were planted in plastic pots (diameter: 8 cm, height: 8 cm), green peach aphids (Myzus persicae) were propagated on the plants, and the number of surviving green peach aphids in each pot was counted. The condensed heterocyclic compounds represented by the general formula (1) of the present invention or salts thereof were separately dispersed in water and diluted to 500 ppm, and the agrochemical dispersions were applied to the foliage of the potted Chinese cabbage plants. After the plants were air-dried, the pots were kept in a greenhouse. At 6 days after the foliar application, the number of surviving green peach aphids on the Chinese cabbage plant in each pot was counted, the control rate was calculated according to the formula shown below, and the control effect was evaluated according to the criterion shown below. Control rate=100−{(T×Ca)/(Ta×C)}×100 Ta: the number of survivors before the foliar application in a treatment plot T: the number of survivors after the foliar application in a treatment plot Ca: the number of survivors before the foliar application in a non-treatment plot C: the number of survivors after the foliar application in a non-treatment plot Criterion A: the control rate is 100%. B: the control rate is 90 to 99%. C: the control rate is 80 to 89%. D: the control rate is 50 to 79%.

[2] = system: Laodelphax striatella; assay: Test of insecticidal effect on Laodelphax striatella (rice seedling dip); conditions: Laodelphax striatellus, 192 h, rice seedlings dipped for 30 seconds, 3rd-instar larvae, 8 days after the inoculation, read-out: insecticidal effect (corrected mortality rate), activity level
Description: Test of Insecticidal Effect on Laodelphax striatella
The condensed heterocyclic compounds represented by the general formula (1) of the present invention or salts thereof were separately dispersed in water and diluted to 500 ppm, and rice plant seedlings (variety: Nihonbare) were dipped in the agrochemical dispersions for 30 seconds. After air-dried, each seedling was put into a separate glass test tube and inoculated with ten 3rd-instar larvae of Laodelphax striatella, and then the glass test tubes were capped with cotton plugs. At 8 days after the inoculation, the numbers of surviving larvae and dead larvae were counted, the corrected mortality rate was calculated according to the formula shown below, and the insecticidal effect was evaluated according to the criterion of Test Example 1. Corrected mortality rate (%)=100×(Survival rate in a non-treatment plot−Survival rate in a treatment plot)/Survival rate in a non-treatment plot

[3] = system: Plutella xylostella; assay: Test of insecticidal effect on Plutella xylostella (dip of Chinese cabbage seedlings with laid eggs); conditions: 144 h, seedlings with laid eggs dipped for about 30 seconds, 25° C., 6 days after the dip treatment, read-out: insecticidal effect (corrected mortality rate), activity level
Description: Test of Insecticidal Effect on Plutella xylostella
Adults of Plutella xylostella were released onto Chinese cabbage seedlings and allowed to lay eggs thereon. At 2 days after the release of the adults, the Chinese cabbage seedlings with laid eggs were dipped for about 30 seconds in agrochemical dispersions diluted to 500 ppm, each of which contained a different condensed heterocyclic compound represented by the general formula (1) of the present invention as an active ingredient. The seedlings were air-dried and then kept in a thermostatic chamber at 25° C. At 6 days after the dip treatment, the number of hatched larvae per plot was counted, the mortality rate was calculated according to the formula shown below, and the insecticidal effect was evaluated according to the criterion of Test Example 1. This test was conducted in triplicate using 10 adults of Plutella xylostella per plot. Corrected mortality rate (%)=100×(Number of hatched larvae in a non-treatment plot−Number of hatched larvae in a treatment plot)/Number of hatched larvae in a non-treatment plot

Structure (SMILES)	pest or weed control at 500 ppm [1]	mortality at 500 ppm [2]	mortality at 500 ppm [3]
CCS(=O)(=O)c1cc(C2CC2)cnc1-c1nc2cc(C(F)(F)F)cnc2n1C [Compound 1-15]	100%	100%	100%
CCSc1cc(C2CC2)cnc1-c1nc2cc(C(F)(F)F)cnc2o1 [Compound 3-13, 2-(3-ethylthio-5-cyclopropylpyridin-2-yl)-5-trifluoromethyl-oxazolo[5,4-b]pyridine]	100%	100%	100%
CCS(=O)(=O)c1cc(C2CC2)cnc1-c1nc2cc(C(F)(F)F)cnc2o1 [Compound 3-15, 2-(3-ethylsulfonyl-5-cyclopropylpyridin-2-yl)-5-trifluoromethyl-oxazolo[5,4-b]pyridine]	100%	100%	100%
CCSc1cc(C2CC2)cnc1-c1nc2cc(C(F)(F)F)cnc2s1 [Compound 5-13]	100%	100%	100%
CCS(=O)(=O)c1cc(C2CC2)cnc1-c1nc2cc(C(F)(F)F)cnc2s1 [Compound 5-15]	100%	100%	100%
CCSc1cc(C2CC2)cnc1-c1nc2cc(C(F)(F)F)ccc2n1C [Compound 7-13, 2-(3-ethylthio-5-cyclopropylpyridin-2-yl)-1-methyl-5-trifluoromethyl-1H-benzimidazole]	100%	100%	100%
CC[S+]([O-])c1cc(C2CC2)cnc1-c1nc2cc(C(F)(F)F)ccc2n1C (centres unmarked) [Compound 7-14, 2-(3-ethylsulfinyl-5-cyclopropylpyridin-2-yl)-1-methyl-5-trifluoromethyl-1H-benzimidazole]	100%	100%	100%
CCS(=O)(=O)c1cc(C2CC2)cnc1-c1nc2cc(C(F)(F)F)ccc2n1C [Compound 7-15, 2-(3-ethylsulfonyl-5-cyclopropylpyridin-2-yl)-1-methyl-5-trifluoromethyl-1H-benzimidazole]	100%	100%	100%
CCSc1cc(C2CC2)cnc1-c1nc2cc(C(F)(F)F)ccc2s1 [Compound 9-10, 2-(3-ethylthio-5-cyclopropylpyridin-2-yl)-5-trifluoromethyl-benzothiazole]	100%	100%	100%
CCS(=O)(=O)c1cc(C2CC2)cnc1-c1nc2cc(C(F)(F)F)ccc2s1 [Compound 9-12, 2-(3-ethylsulfonyl-5-cyclopropylpyridin-2-yl)-5-trifluoromethyl-benzothiazole]	100%	100%	100%
CCS(=O)(=O)c1cc(C2(C(=O)O)CC2)cnc1-c1nc2cc(C(F)(F)F)cnc2n1C [Compound 11-1]	100%	100%	100%
CCS(=O)(=O)c1cc(C2(C(=O)OC)CC2)cnc1-c1nc2cc(C(F)(F)F)cnc2n1C [Compound 11-2]	100%	100%	100%
CCS(=O)(=O)c1cc(C2(C(N)=O)CC2)cnc1-c1nc2cc(C(F)(F)F)cnc2n1C [Compound 11-6]	100%	100%	100%
CCS(=O)(=O)c1cc(C2(C#N)CC2)cnc1-c1nc2cc(C(F)(F)F)cnc2n1C [Compound 11-13]	100%	100%	100%
CCS(=O)(=O)c1cc(C2CC2C(=O)OC)cnc1-c1nc2cc(C(F)(F)F)cnc2n1C (centres unmarked) [Compound 11-82]	100%	100%	–
